Assay results published in publication PMC9117288, “Origins of glycan selectivity in streptococcal Siglec-like adhesins suggest mechanisms of receptor adaptation” (Nature Communications, 2022).
In brackets after ≈: the same amount, converted by molar mass. Like-named read-outs stand apart in the source and are kept apart here.

Experiments:
SLBRHsa [1] = biological target: T1, SLBRHsa (Streptococcus gordonii, UniProt A8AWU7); format: binding; design: gene hsa; settings: labelled compound (biotinylated glycan); 500 nM immobilized GST-SLBR
T1 sequence (A8AWU7 220-453): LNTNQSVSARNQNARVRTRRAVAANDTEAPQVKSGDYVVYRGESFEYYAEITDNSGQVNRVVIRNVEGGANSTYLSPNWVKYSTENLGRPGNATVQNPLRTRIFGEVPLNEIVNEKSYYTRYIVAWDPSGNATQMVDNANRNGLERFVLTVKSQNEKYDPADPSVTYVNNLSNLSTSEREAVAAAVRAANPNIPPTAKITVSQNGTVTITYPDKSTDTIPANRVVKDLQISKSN

SLBRSK678 = assay: ELISA, immobilized GST-SLBR; design: species or system Streptococcus sanguinis; settings: labelled compound (biotinylated glycan); 500 nM immobilized GST-SLBR
SLBRGspB [2] = biological target: T2, SLBRGspB (Streptococcus gordonii, UniProt Q939N5); design: ELISA, binding of biotinylated glycans to immobilized GST-SLBR (500 nM), absorbance at 450 nm; settings: biotinylated glycan, binder
T2 construct: gene gspB
T2 sequence (Q939N5 245-604): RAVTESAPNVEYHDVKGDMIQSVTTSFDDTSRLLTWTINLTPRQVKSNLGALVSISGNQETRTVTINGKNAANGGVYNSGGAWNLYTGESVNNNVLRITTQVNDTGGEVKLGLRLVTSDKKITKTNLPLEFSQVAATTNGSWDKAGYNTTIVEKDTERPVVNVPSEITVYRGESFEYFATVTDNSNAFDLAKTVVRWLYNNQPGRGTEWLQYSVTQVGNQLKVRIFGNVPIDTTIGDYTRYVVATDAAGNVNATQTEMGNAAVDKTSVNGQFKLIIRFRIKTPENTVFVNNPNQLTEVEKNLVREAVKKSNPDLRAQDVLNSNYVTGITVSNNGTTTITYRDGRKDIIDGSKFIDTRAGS

SLBRUB10712 = assay: ELISA, immobilized GST-SLBR; design: species or system Streptococcus gordonii; settings: labelled compound (biotinylated glycan); 500 nM immobilized GST-SLBR
SLBRHsa [3] = biological target: T1, SLBRHsa; design: gene hsa; ELISA: GST fusion (pGEX-3X); crystals: His6-MBP tag cleaved with thrombin; E. coli; settings: binder
SLBRGspB [4] = biological target: T2, SLBRGspB; assay: ELISA, immobilized GST-SLBR; format: binding; settings: labelled compound (biotinylated glycan)

Structure (SMILES) | EC50 (SLBRHsa [1]) | EC50 (SLBRSK678) | EC50 (SLBRUB10712) | other results
CC(=O)N[C@H]1[C@H]([C@H](O)[C@H](O)CO)O[C@@](O[C@H]2[C@@H](O)[C@@H](CO)O[C@@H](O[C@H]3[C@H](O)[C@@H](NC(C)=O)C(O)O[C@@H]3CO)[C@@H]2O)(C(=O)O)C[C@@H]1O (stereo partly shown) [3’-sialyl-N-acetyllactosamine] | 2390 nM | 0.90 ± 0.51 µg/mL (≈ 1.33 µM) | 0.13 ± 0.19 µg/mL (≈ 0.193 µM) | EC50 (SLBRGspB [2]; read-out: 3'sLn): > 7410 nM
CC(=O)N[C@H]1[C@H]([C@H](O)[C@H](O)CO)O[C@@](O[C@H]2[C@@H](O)[C@@H](CO)O[C@@H](O[C@H]3[C@H](O[C@@H]4O[C@@H](C)[C@@H](O)[C@@H](O)[C@@H]4O)[C@@H](NC(C)=O)C(O)O[C@@H]3COS(=O)(=O)O)[C@@H]2O)(C(=O)O)C[C@@H]1O (stereo partly shown) [6-O-sulfo-sialyl Lewis X] |  | 0.63 ± 0.36 µg/mL (≈ 0.699 µM) | 0.14 ± 0.10 µg/mL (≈ 0.155 µM) | EC50 (SLBRHsa [3]; read-out: 6S-sLe^X): > 5550 nM
CC(=O)N[C@H]1[C@H]([C@H](O)[C@H](O)CO)O[C@@](O[C@H]2[C@@H](O)[C@@H](CO)O[C@@H](O[C@@H]([C@H](O[C@@H]3O[C@@H](C)[C@@H](O)[C@@H](O)[C@@H]3O)[C@H](C=O)NC(C)=O)[C@H](O)CO)[C@@H]2O)(C(=O)O)C[C@@H]1O [sLe^X, sialyl Lewis X] |  |  |  | EC50 (SLBRHsa [3]; read-out: sLe^X): > 6090 nM
CC(=O)N[C@H]1[C@H]([C@H](O)[C@H](O)CO)O[C@@](O[C@H]2[C@@H](O)[C@@H](CO)O[C@@H](O[C@H]3[C@H](O)[C@@H](CO)OC(O)[C@@H]3NC(C)=O)[C@@H]2O)(C(=O)O)C[C@@H]1O (stereo partly shown) [sialyl Lewis^C] | 993 nM |  |  | EC50 (SLBRGspB [2]; read-out: sLe^C): > 7410 nM
CC(=O)N[C@H]1[C@H]([C@H](O)[C@H](O)CO)O[C@@](O[C@H]2[C@@H](O)[C@@H](CO)O[C@@H](O[C@H]3[C@@H](O)[C@@H](CO)OC(O)[C@@H]3NC(C)=O)[C@@H]2O)(C(=O)O)C[C@@H]1O (stereo partly shown) [sialyl-T antigen] | 178 nM |  |  | EC50 (SLBRGspB [2]; read-out: sTa): 119 nM; ELISA, immobilized GST-SLBR (SLBRGspB [4]): recapitulated here by ELISA showing concentration-dependent binding
